Assay results reported in PMC6222636, “Determination of Novel Highly Effective Necrostatin Nec-1s in Rat Plasma by High Performance Liquid Chromatography Hyphenated with Quadrupole-Time-of-Flight Mass Spectrometry” (Molecules : A Journal of Synthetic Chemistry and Natural …, 2018).
Values joined by “and” are separate entries in the source; they are usually repeats but may differ in a detail not shown here. Equal values may be shown once. Read-outs that look alike come from different tables or passages of the source.

Legend:
[1] = system: receptor interacting protein 1 (RIP1); test: RIP1 inhibition (necrostatin potency); format: biochemical; conditions: Nec-1s vs Nec-1
[2] = Nec-1s plasma levels in rats by HPLC-Q-TOF after i.v. bolus; format: in vivo, male Wistar rats; conditions: for concentration at 50 min: male, Wistar, rat, plasma, iv, 0.37 mg/kg
Experimental: The developed and validated HPLC-Q-TOF method was applied for the determination of real plasma concentrations of Nec-1s in 5 male Wistar rats after i.v. administration of a bolus dose of Nec-1s (0.37 mg/kg). The samples taken from each subject were prepared and analyzed in triplicate. […] The measured data were consistent to each other with plasma concentrations in the range of 319.81–466.52 nM, and mean value of 377.26 nM. The differences in the found concentrations can be explained by different metabolism in the studied animals.
A total of 11 male Wistar rats (250–300 g body weight) were housed under standard conditions with a controlled light/dark cycle (12/12 h) and temperature (22 °C ± 2 °C), and fed a standard diet and tap water ad libitum. The anesthetized animals (natrium pentobarbital 60 mg/kg, i.p.) were randomized in two groups to receive either vehicle (C, n = 6) or Nec-1s (N, n = 5) and blood was collected from the abdominal aorta 50-min after drug application (a bolus dose; 0.37 mg/kg, i.v.; diluted in 20% v/v DMSO) into EDTA-containing syringes (S-Monovette, Starstedt, Germany). To obtain plasma, the blood was centrifuged at 4 °C for 15 min at 4000× g. The aliquots of plasma were stored at −80 °C until further procedure.
An aliquot of plasma was thawed at laboratory temperature. Afterwards, the rat plasma (180 µL) was mixed with the internal standard solution (20 µL, 1.25 µg/mL of prednisone in 50% (v/v) methanol). […] The precipitated sample was vortexed for 5 min (2400 rpm) and then centrifuged for 10 min (15000× g; 4 °C). After the centrifugation, 800 µL of supernatant was transferred into another tube and evaporated to dryness under a gentle stream of nitrogen at ambient temperature. The residuals were reconstituted with 100 µL of mobile phase (25:75 mixture of acetonitrile and water containing 0.1% formic acid) and an aliquot of the solution (5 µL) was used for the HPLC-DAD-Q-TOF analysis.
All of the analyses were carried out on the chromatographic apparatus consisting of LC Agilent Infinity System (Agilent Technologies, Santa Clara, CA, USA) equipped with a gradient pump (1290 Bin Pump VL), an automatic injector (1260 HiPals), and column thermostat (1290 TCC; set at 4 °C). The LC system was hyphenated with a photodiode array detector (Infinity 1290 DAD), and quadrupole time-of-flight (Q-TOF) mass spectrometer (Agilent 6520 Accurate-Mass Q-TOF LC/MS) equipped with the electrospray ionization (ESI) source operated in a positive ionization mode. A computer with a MassHunter software (version MassHunter Workstation B.05.01, Agilent Technologies) was used to control the apparatus as well as acquire and process the data. The Q-TOF mass spectrometer was operated under following parameters: drying gas temperature 360 °C, drying gas flow 12 L/min, nebulizing gas pressure 60 psi, capillary voltage 5500 V, fragmentor voltage 125 V, skimmer voltage 65 V, OctopoleRFPeak 550 V, and collision gas N2. […] In the processing the exact (theoretical) masses of their [M + H]^+ (278.0691 for Nec-1s; 359.1853 for prednisone), and [M + Na]^+ (300.0510 for Nec-1s; 381.1672 for prednisone) adducts were used. For the MS spectra obtained by the analysis of the stock solutions of Nec-1s and prednisone see Figure 4. The theoretical and experimentally found masses of the Nec-1s and prednisone adducts were in a very good mutual agreement so that Q-TOF was suitable for an unambiguous confirmation of the identity of the analyzed compounds in the samples. The EIC were extracted with m/z expansion of ±10 ppm. In case of DAD detector, the peak areas of the analyte and IS were evaluated at the wavelength of 280 nm.
The chromatographic separation of the Nec-1s was achieved by using RP-C18 chromatographic column–Zorbax Extend-C18, 2.1 × 50 mm, 1.8 µm obtained from Agilent Technologies. A gradient elution of mobile phases consisting of 0.1% formic acid in LC-MS water (A) and 0.1% formic acid in acetonitrile (B) was used. […]

[3] = biological target: receptor interacting protein 1 (RIP1); conditions: cited from earlier work; for IC50: RIP1 inhibitor potency
[4] = system: indoleamine 2,3-dioxygenase (IDO); parameters: method as in PMID 23190609; conditions: cited from earlier work
[5] = system: abdominal aortic aneurisms (elastase perfusion); parameters: method as in PMID 28186202; conditions: mice with aneurysm induced by elastase perfusion, cited from earlier work
[6] = parameters: method as in PMID 23190609; conditions: cited from earlier work
[7] = parameters: method as in PMID 23190609; conditions: cited from earlier work; remark: listed apart in the source
[8] = parameters: method as in PMID 28946210; conditions: rat plasma, cited from earlier work
[9] = individual rats N1-N5, 50 min after i.v. bolus dose 0.37 mg/kg, n = 3 analyses

| concentration at 50 min ([2]; 50 min after i.v. bolus dose 0.37 mg/kg, 5 male Wistar rats, read-out: plasma concentration, mean value of 5 rats) [nM] | concentration at 50 min ([2]; 50 min after i.v. bolus dose 0.37 mg/kg, 5 male Wistar rats, read-out: plasma concentrations, range over 5 rats) [nM] | concentration at 50 min ([2]; individual rats N1-N5, 50 min after i.v. bolus dose 0.37 mg/kg, n = 3 analyses, read-out: Plasma Concentration) [nM] | concentration at 50 min ([2]; individual rats N1-N5, 50 min after i.v. bolus dose 0.37 mg/kg, n = 3 analyses, read-out: Plasma Concentration (ng/mL)) [ng/mL] | SMILES | inhibition activity relative to Nec-1 [1] [times] | Plasma Concentration (nM) [2, 9] | Plasma Concentration (ng/mL) [2, 9] | IC50 [3] [nM] | effect on IDO [4] | aortic expansion ([5]; control 172.80%, p < 0.05) [%] | metabolic stability in comparison to Nec-1 [6] | in vivo and in vitro toxicity compared with Nec-1 [7] | aortic diameter vs control ([5]; p = 0.1) | concentration level at 5 min after i.v. administration ([8]; i.v., 5 min) [ng/mL] | concentration level at 1 h after i.v. administration ([8]; i.v., 1 h) [ng/mL] | concentration level at 8 h after i.v. administration ([8]; i.v., 8 h) [ng/mL] | concentration after 8 h, oral administration ([8]; oral, after 8 h) | peak concentration after oral administration ([8]; oral) [ng/mL] | time of peak concentration after oral administration ([8]; oral) [h] | capability to inhibit RIP1 [3] |
| --- | --- | --- | --- | --- | --- | --- | --- | --- | --- | --- | --- | --- | --- | --- | --- | --- | --- | --- | --- | --- |
| 377 | 320 to 467 | 374 | 104 | CN1C(=O)NC(Cc2c[nH]c3c(Cl)cccc23)C1=O (centres unmarked) [Nec-1s, 5-((7-chloro-1H-indol-3-yl)methyl)-3-methyl-2,4-imidazolidinedione] | 2 | 327.43 nM and 398.08 nM and 319.81 nM and 466.52 nM | 90.93 ng/mL and 110.55 ng/mL and 88.81 ng/mL and 129.56 ng/mL | 210 | does not influence IDO | 64.12 | metabolically more stable | reduced | – | – | – | – | – | – | – | – |
| – | – | – | – | CN1C(=O)C(Cc2c[nH]c3ccccc23)NC1=S (centres unmarked) [Nec-1, 5-(indol-3-ylmethyl)(2-thio-3-methyl)hydantoin] | – | – | – | 494 | concomitant inhibition of indoleamine 2,3-dioxygenase (IDO) | – | – | – | smaller but the difference was not statistically significant | 1733 | 617 | < 100 | undetectable | 648 | 1 | – |
| – | – | – | – | O=C1NC(=S)NC1Cc1c[nH]c2ccccc12 (centres unmarked) [Nec-1i] | – | – | – | – | found to be an IDO inhibitor | – | – | – | – | – | – | – | – | – | – | lacking the capability to inhibit RIP1 |
